Data set [1] relates to 5×FAD Alzheimer's dementia-induced mice. In words: Immunohistochemistry of Aβ aggregates in brain tissue. The class given is in vivo, mouse. The conditions noted are these: hippocampus and cerebral cortex regions, 6e10 immunohistochemistry, 5×FAD mice, DTMB 10 mg/kg orally. The protocol:
In the case of Alzheimer's dementia, an increase in the formation of Aβ aggregates in brain tissue is observed as a common pathological phenomenon. Therefore, to determine whether DTMB administration inhibited the formation of Aβ aggregates, the amount of AB aggregates in the hippocampus and cerebral cortex, which are closely related to memory ability, was measured using immunochemical staining in 5×FAD Alzheimer's dementia-induced mice.
The mice were perfused with ice-cold phosphate-buffered saline (PBS). The brain tissue was used separately for molecular analysis or immunohistochemistry. The right hemisphere was fixed with 4% PFA and transferred to a sucrose solution (30%) for 24 hours. The right hemisphere was frozen in the optimal cutting temperature compound of dry ice. Coronal sections (18 μm thick) including the hippocampus were cut and prepared on slide glass. The tissue sections were then permeabilized and blocked with blocking solution (5% goat serum and 0.2% Triton X-100 in PBS) for 1 h at room temperature. Primary antibody incubation was performed overnight at 4° C. using anti-6e10 antibody (Biolegend, Japan, 1:100). After washing, the sections were incubated with the appropriate secondary antibody (1:500) for 1 h at room temperature. […] Fluorescence was measured by calculating the % area and analyzed using ImageJ. […]

In another data set the test system is RAW 264.7 macrophages. In words: NO production inhibition (Griess assay) in LPS-treated macrophages. The class given is cell-based. To be noted: LPS-induced. Here is the method:
Previous studies have reported that all three subtypes of PPAR inhibit inflammatory responses through inhibition of the activity and quantitative changes of the NF-κB transcription factor, a major regulator of inflammatory responses.
First, RAW 264.7 macrophages were cultured in a humidified atmosphere of 37° C. in a 5% CO2 incubator with DMEM containing 10% FBS and 1% penicillin/streptomycin. After inducing an inflammatory response in RAW 264.7 macrophages by LPS treatment, the Griess assay (Promega) was performed according to the manufacturer's instructions to measure the concentration of nitrite.

In the next data set the test system is HMO6 cell line. In words: Cell viability assay (MTT), HMO6. The class given is cell-based. To be noted: HMO6, 48 h, at higher concentrations. Here is the method: Cell viability was measured by a chromogenic assay that biologically reduces 3-(4,5-dimethyl-thiazol-2-yl)-2,5-diphenyltetrazolium bromide (MTT) to formazan in living cells. Briefly, cells were cultured in 96-well plates in a final volume of 100 μL. After 24 h, the culture medium was replaced with fresh medium containing DTMB compound, and the cells were cultured for another 48 h. Next, MTT (dissolved in PBS at 5 mg/mL) was added to the culture medium. The cells were cultured in the dark at 37° C. for 1 h, and then the supernatant was removed from the wells. The formazan crystals were dissolved by adding total MTT solvent (4 mM HCl and 0.1% Nonidet P-40, both dissolved in isopropanol), and the absorbance was measured at 570 nm using a microplate reader, Infinite 200 Pro NanoQuant microplate reader (TECAN, Switzerland).

A further data set deals with 5×FAD mice. As to the kind of experiment: Western blot of NLRP3, NF-κB and ASC in hippocampal tissue. The class given is in vivo, mouse. To be noted: hippocampal brain lysate. Here is the method:
The protein levels of NLRP3, NF-κB, and ASC in the hippocampal tissues isolated from 5×FAD mice and DTMB-treated 5×FAD mice were confirmed by Western blot. Western blot analysis was performed in the same manner as in Example 2-4 using primary antibodies against NLRP3, NF-κB, and ASC (Cell Signaling Technology, Danvers, MA, USA).
A general note: In western blotting, separated proteins are transferred to a membrane and probed.

The test system of data set [2] is 5×FAD Alzheimer's dementia-induced mice. As to the kind of experiment: Immunohistochemistry of gliosis (IBA-1, GFAP) in brain tissue. The class given is in vivo, mouse. To be noted: cerebral cortex and hippocampus, IBA-1 and GFAP staining, 5×FAD mice, DTMB 10 mg/kg orally. Here is the method: The degree of gliosis was confirmed through immunochemical analysis using antibodies against IBA-1, a specific protein of microglia, and GFAP, a specific protein of astrocytes. Specifically, immunohistochemistry was performed in the same manner as in Example 6-1 using anti-Iba1 antibody (Wako, Japan, 1:200) and anti-GFAP antibody (Abcam, Cambridge, UK, 1:200) as primary antibodies.

The test system of data set [3] is microglial cells isolated from mice. In words: Western blotting of NF-κB, NLRP-3 and ASC in primary microglia. It counts as cell-based, mouse. The conditions noted are these: primary microglia treated with Aβ aggregates or LPS, Western blot. Here is the method:
To confirm the mechanism by which DTMB exerts its anti-inflammatory effect, microglial cells isolated from mice were treated with Aβ aggregates or LPS to induce an inflammatory response, and then DTMB was treated to determine the levels of NF-κB, NLRP-3, and ASC proteins by western blotting.
The cells were lysed with lysis buffer containing 50 mM Tris (pH 7.4), 140 mM NaCl, 5 mM EDTA, and protease inhibitor tablets, and then sonicated. The protein concentration of the lysate was determined using Bradford reagent (AMERSCO, MA, USA). Proteins were separated by sodium dodecyl sulfate (SDS) polyacrylamide gel electrophoresis, transferred to nitrocellulose membranes (Pall Corporation, New York, NY, USA), and incubated with blocking buffer (5% nonfat dry milk and 0.1% Tween 20 in TBS) for 30 min. Western blot analysis was performed using primary antibodies against NF-κB, NLRP3, and ASC (Cell Signaling Technology, Danvers, MA, USA). Secondary antibodies from rabbit (Promega), rat, and goat (Bethyl Laboratories) were used, and detection was performed using SUPEX ECL reagent (Neuronex, Korea) and ImageQuant LAS-4000 (GE Healthcare, MA, USA) according to the manufacturer's instructions. Integrated blot densities were quantified using ImageJ.

Data set [4] in a line: Body weight and organ weight after 12 weeks of treatment. To be noted: DTMB 10 mg/kg orally, 12 weeks (3 months), versus vehicle-treated mice. The class given is in vivo, mouse. Here is the method: 5×FAD (Tg6799) mice were purchased from Jackson Laboratory (Bar Harbor, ME, USA), and male transgenic mice were mated with B6/SJL hybrid female mice. Genotyping was performed by PCR analysis of tail-cut samples. In this example, 8-week-old female mice were used for drug administration, and wild-type littermates were used as controls. All procedures related to animal behavior experiments were approved by the Institutional Animal Care and Use Committee of Pohang University of Science and Technology (POSTECH IACUC). All animal experiments were performed in accordance with the principles of the Animal Welfare Act, the PHS Animal Welfare Policy, and the NIH Guide for the Care and Use of Laboratory Animals. All mice were maintained under general conditions in the POSTECH animal facility according to institutional guidelines.
To evaluate the effect of DTMB on 5×FAD mice, DTMB (10 mg/kg) and vehicle (1% carboxymethylcellulose and 10% DMSO) were orally administered to four groups (wild type, wild type+DTMB, 5×FAD, and 5×FAD+DTMB) 6 days per week for 3 months.

Molecules are shown by their SMILES.

By IC50 is commonly meant the point on the concentration scale where inhibition reaches its midpoint. Read a low IC50 as greater potency. Regarding `COc1ccc(-c2cc(=O)oc3c(C)c(OC(=O)[C@H](Cc4c[nH]c5ccccc45)NC(=O)OC(C)(C)C)ccc23)cc1` [DTMB, [4-(4-Methoxyphenyl)-8-methyl-2-oxochromen-7-yl](2S)-3-(1H-indol-3-yl)-2-[(2-methylpropan-2-yl)oxycarbonylamino]propanoate], the “Amount of Aβ aggregates” value in data set [1] is on record as “significantly reduced”. Further, the “NO production inhibition compared with PPAR modulators” value in the data set with RAW 264.7 macrophages (at the same concentration) was “more effectively than WY14643, a PPARα modulator, and rosiglitazone, a PPARγ modulator”. Besides, in the data set with RAW 264.7 macrophages (Mus musculus, RAW264.7, Griess reagent), inhibition was half-maximal at 1230 nM (IC50). Further, the “Cytotoxicity (MTT)” value with HMO6 cell line is “no cytotoxicity”. In addition, in the data set with 5×FAD mice, the ASC level result is on record as “did not change significantly”, the “Protein level of NF-κB” value is “decreased” and the “Protein level of NLRP3” value is listed as “decreased”. The “Hyperactivity of microglia and astrocytes (gliosis)” value in data set [2] is recorded as “significantly reduced”. In addition, in data set [3], the NF-κB protein level entry is recorded as “reducing NF-κB” and the NLRP3 protein level result was “reduced”. In data set [4], the Body weight entry is recorded as “no change” and the Tissue weight result is “no change”.

The values above are taken from patent US20260053778A1, “USE OF NOVEL PPAR ACTIVITY MODULATOR FOR PREVENTION, AMELIORATION OR TREATMENT OF DEGENERATIVE BRAIN DISEASES” (POSTECH RESEARCH AND BUSINESS DEVELOPMENT FOUNDATION, priority 2022, published 2026).
